Patent publication US4517180A, “Peptides, process for preparing the same and psychodepressant compositions containing the same” (Amano Pharmaceutical Co., Ltd, priority 1982, dated 1985)
Where a SMILES comes first, the peptide text is derived from it.

Columns and labels:
Type in all cases: in vivo
[1] = tested on: Male ddy mice; experiment: Effect on hyperlocomotion induced by thyrotropin releasing hormone (TRH); details: for Activity counts (frequency per 60 min): Mean ± S.E.: 30 min before TRH 5 mg/kg i.p., control 1215 ± 114; for Effect on hyperlocomotion induced by TRH (in words): mice, s.c.
Protocol: Effect on hyperlocomotion induced by thyrotropin releasing hormone (TRH)
Male ddy mice (weighing 18 to 24.5 g) were used. The mice were placed into a transparent acrylic resin cage (26×37×11 cm) installed on Animex meter. Before experiment, the mice were allowed to habituate for 2 hours in the cage to fully lower the activity of the mice. After the completion of habituation, peptide A, peptide B or a diluent (physiological saline containing 1 mg/ml of sodium hydrogencarbonate) serving as a control was subcutaneously given to the mice. Thirty minutes thereafter, 5 mg/kg of TRH was intraperitoneally given to the animals. The activity counts during the period of 60 minutes following the administration of TRH was measured. Student's t-test was resorted to for statistical treatment.

[2] = tested on: male Wister rats; experiment: Effect on metabolism of amine in the brain; details: 1 mg/kg s.c., 1 hour after administration
Protocol: Effect on metabolism of amine in the brain
Unfasted male Wister rats (weighing 180 to 220 g) were used. Peptide A or peptide B was subcutaneously given to the animal at a dose of 1 mg/kg, the head was irradiated with microwave 1 hour thereafter, and amine metabolite was extracted from the brain. First, removed tissues were homogenized with 1M formic acid and centrifuged at 20,000×g for 20 minutes, and the supernatant (1 ml) was shaken with 5 ml of ethyl acetate. The 3,4-dihydroxyphenylacetic acid (DOPAC), homovanillic acid (HVA) and 5-hydroxyindoleacetic acid (5-HIAA) in the ethyl acetate layer were analyzed by high-performance liquid chromatography under the following conditions. Chemcosorb, 5-ODS, 20 cm×4.6 mm I.D. was used for a separating column, and a mobile phase (0.1M KH2 PO4 (pH 5.0)-5 mM EDTA-2Na-5% acetonitrile) was passed through the colunn at a flow rate of 1 ml/min. The electrochemical detector was set to an oxidation potential of +0.8 V.

[3] = tested on: male Wister rats; experiment: Effect on yawning behavior induced by apomorphine; details: for Number of yawns (average): 30 min before apomorphine 0.03 mg/kg s.c., counted 30 min, control 4.5; for Effect on yawning behavior induced by apomorphine (in words): rats, s.c.
Protocol: Effect on yawning behavior
Male Wister rats (weighing 200 to 300 g) were used, with 10 rats in each group. The rat was placed into a plastics cage (17×24×12 cm) with a floor mat and was then habituated for 30 minutes. Peptide A, peptide B, CCK-8 or the above-mentioned diluent serving as a control was subcutaneously given to the animal. Thirty minutes thereafter, 0.03 mg/kg of apomorphine was subcutaneously given to the animal. The number of yawns induced by apomorphine was counted during a period of 30 minutes following administration of apomorphine. The test was conducted in a soundproof compartment for each animal. Wilcoxon rank-sum test was resorted to for statistical treatment.

[4] = tested on: Male ddy mice; experiment: Effect on climbing behavior induced by apomorphine (Pharmacological Test 2); parameters: key to Average: Mean ± S.E. (total of 7 scores), climbing behavior: sum of 7 scores; 0 = all four legs on floor, 2 = ≥3 legs on rods; details: for Average: Mean ± S.E. (total of 7 scores), climbing behavior: 30 min before apomorphine 0.75 mg/kg s.c., control 9.8 ± 0.7; for Effect on apomorphine-induced climbing behavior (in words): mice, s.c.
Protocol: (§1) Effect on climbing behavior induced by apomorphine
Male ddy mice (weighing 20 to 30 g) were used, with 10 mice in each group. Each mouse was placed into a cylindrical cage, 12 cm in diameter and 14 cm in height, made up of vertical rods of 2 mm in diameter spaced apart at a distance of 10 mm in a circular arrangement. The mouse was allowed to stand therein for 2 hours. Peptide A, peptide B, CCK-8 or, as a control, the above-mentioned diluent was subcutaneously given to the animal, and 30 minutes later, 0.75 mg/kg of apomorphine was subcutaneously given. […] The test was carried out in soundproof compartments.
(§2) 0: All the four legs are on the floor.
(§3) 2: At least three legs are on rods.
Student's t-test was resorted to for statistical treatment.

[5] = tested on: Male ddy mice; experiment: Effect on climbing behavior induced by apomorphine (Pharmacological Test 7); parameters: key: sum of 7 scores; each 0 = four legs on floor, 2 = ≥3 legs on rods; details: control 9.8 ± 0.7
Protocol: as §1
Male ddy mice (weighing 20 to 30 g) were used, with 10 mice in each group. Each mouse was placed into a cylindrical cage, 12 cm in diameter and 14 cm in height, made up of vertical rods of 2 mm in diameter spaced apart at a distance of 10 mm in a circular arrangement. The mouse was allowed to stand therein for 2 hours. Physiological saline containing a specified amount of a test compound (and 1 mM of sodium hydrogencarbonate) was subcutaneously given to one group of mice in a volume of 1 ml/10 g. (The same dose of saline only was given to a control group). […] The test was carried out in soundproof compartments.
as §2, §3
The other compounds were tested in the same manner as above. The test was carried out in soundproof compartments. Student's t-test was resorted to for statistical treatment.

[6] = tested on: Male ICR mice; experiment: Inhibitory effect on hyperlocomotion induced by administration of methylphenidate; details: for Inhibitory effect on methylphenidate-induced hyperlocomotion (in words): s.c.; for ED50, inhibition of methylphenidate-induced hyperlocomotion: s.c. with methylphenidate 10 mg/kg s.c., measured 1 hour after, 50 with control as 100
Protocol: Inhibitory effect on hyperlocomotion induced by administration of methylphenidate
Male ICR mice (weighing 24 to 30 g) were divided into groups, each including 10 mice. To one group of mice were subcutaneously given 10 mg/kg of methylphenidate and 0.1 ml/10 g of a saline solution of a specified amount of a test compound and 1 mM of sodium hydrogencarbonate. One hour after the administration, the test animals were checked for hyperlocomotion, which was measured with use of a device for measuring locomotion of small animals (wherein the motion of an animal shifts the center of graavity of the device to actuate a microswitch for the measurement of the amount of motion, see Folia Pharmacologica Japonica, 74, 629-639 (1978). For a control group, the same procedure as above was repeated except that the saline solution given was free from any test compound. The concentration of the test compound at which the result achieved by the group of animals was 50, namely, ED50 value, was determined, with the measurement obtained by the control group calculated as 100. The other compounds were tested in the same manner as above.

[7] = tested on: male Wister rats; experiment: Effect on the fixed ratio (FR20) responding in rats; details: s.c., 15 min before 20 min session, dose giving count 50 with control as 100
Protocol: Effect on the fixed ratio responding in rats
The test was conducted according to the method described in Ahlenius S. and Engel J., Eur. J. Pharm., Vol. 15, 187-192 (1971).
Male Wister rats (weighing 240 to 320 g) were placed into Skinner box (product of Bil-Medika Co., Ltd., Japan, adapted to give a feed when a lever within the box is pressed) and made to learn how to take the food. In this test, one feed was given to the rats when the lever was pressed 20 times, i.e., fixed ratio (FR) 20. The rats showing stable FR20 response were divided into groups each including four rats.
Physiological saline (containing 1 mM of sodium hydrogencarbonate) containing a specified amount of a test compound was subcutaneously given to the rats of one group in a volume of 0.1 ml/100 g. (Physiological saline containing the above-mentioned amount of sodium hydrogencarbonate only was given to the control group). Fifteen minutes after the administration, the test animals were placed in the Skinner box, and the number of times the animals took the feed for 20 minutes was counted. The dose at which the count gained by the group of animals was 50, namely, ED50 value, was determined, with the count gained by the control group calculated as 100. The same procedure as above was repeated with use of the other test compounds.

SMILES | Activity counts (frequency per 60 min): Mean ± S.E. ([1]; 0.1 mg/kg s.c.) [frequency per 60 min] | Activity counts (frequency per 60 min): Mean ± S.E. ([1]; 0.3 mg/kg s.c.) [frequency per 60 min] | Effect on hyperlocomotion induced by TRH (in words) [1] | Increase of DOPAC content in hypothalamus [2] | Influence on content of metabolite (DOPAC, HVA, 5-HIAA) in frontal cortex, limbic forebrain and striatum [2] | Number of yawns (average) ([3]; 1 mg/kg s.c.) | Effect on yawning behavior induced by apomorphine (in words) [3] | Average: Mean ± S.E. (total of 7 scores), climbing behavior ([4]; 0.01 mg/kg s.c.) | Average: Mean ± S.E. (total of 7 scores), climbing behavior ([4]; 0.1 mg/kg s.c.) | Average: Mean ± S.E. (total of 7 scores), climbing behavior ([4]; 1 mg/kg s.c.) | Effect on apomorphine-induced climbing behavior (in words) [4] | Average: Mean ± S.E. (total of 7 scores), climbing behavior ([5]; 0.1 mg/kg s.c.) | Average: Mean ± S.E. (total of 7 scores), climbing behavior ([5]; 0.3 mg/kg s.c.) | Average: Mean ± S.E. (total of 7 scores), climbing behavior ([5]; 1.0 mg/kg s.c.) | Inhibitory effect on methylphenidate-induced hyperlocomotion (in words) [6] | ED50, inhibition of methylphenidate-induced hyperlocomotion [6] [mg/kg] | ED50, inhibition of FR20 responding [7] [mg/kg] | other results
CSCC[C@H](NC(=O)[C@H](Cc1ccc(OS(=O)(=O)O)cc1)NC(=O)[C@H](CC(=O)O)NC(=O)CCCC(=O)O)C(=O)NCC(=O)N[C@@H](Cc1c[nH]c2ccccc12)C(=O)N[C@@H](CCSC)C(=O)N[C@@H](CC(=O)O)C(=O)N[C@@H](Cc1ccccc1)C(N)=O [Peptide A, Glt--Asp--Tyr(SO 3 H)--Met--Gly--Trp--Met--Asp--Phe--NH2] | 936 ± 115 | 613 ± 114 | inhibit the hyperlocomotion induced by TRH | about 60% | Neither of peptide A and peptide B was found to influence | 0 | inhibit the yawning behavior induced by apomorphine | 8.6 ± 0.6 | 5.3 ± 0.5 | 4.5 ± 1.0 | inhibit the climbing behavior | – | – | – | – | – | – | Activity counts (frequency per 60 min): Mean ± S.E. ([1]; 1 mg/kg s.c.): 148 ± 34 frequency per 60 min; Number of yawns (average) ([3]; 0.3 mg/kg s.c.): 1.5; Average: Mean ± S.E. (total of 7 scores), climbing behavior ([4]; 0.03 mg/kg s.c.): 7.9 ± 0.6; Average: Mean ± S.E. (total of 7 scores), climbing behavior ([4]; 0.3 mg/kg s.c.): 5.1 ± 0.7
CSCC[C@H](NC(=O)[C@H](Cc1ccc(OS(=O)(=O)O)cc1)NC(=O)[C@H](CC(=O)O)NC(=O)[C@@H]1CCC(=O)N1)C(=O)NCC(=O)N[C@@H](Cc1c[nH]c2ccccc12)C(=O)N[C@@H](CCSC)C(=O)N[C@@H](CC(=O)O)C(=O)N[C@@H](Cc1ccccc1)C(N)=O [Peptide B, pGlu--Asp--Tyr(SO3 H)--Met--Gly--Trp--Met--Asp--Phe--NH2] | 601 ± 78 | 626 ± 143 | inhibit the hyperlocomotion induced by TRH | about 60% | Neither of peptide A and peptide B was found to influence | 1.0 | inhibit the yawning behavior induced by apomorphine | 8.7 ± 0.8 | 5.4 ± 0.8 | 4.7 ± 1.1 | inhibit the climbing behavior | – | – | – | – | – | – | Activity counts (frequency per 60 min): Mean ± S.E. ([1]; 0.03 mg/kg s.c.): 1009 ± 165 frequency per 60 min
CSCC[C@H](NC(=O)[C@H](Cc1ccc(OS(=O)(=O)O)cc1)NC(=O)CCC(=O)O)C(=O)NCC(=O)N[C@@H](Cc1c[nH]c2ccccc12)C(=O)N[C@@H](CCSC)C(=O)N[C@@H](CC(=O)O)C(=O)N[C@@H](Cc1ccccc1)C(N)=O [Peptide D, Suc--Tyr(SO3 H)--Met--Gly--Trp--Met--Asp--Phe--NH2] (HELM PEPTIDE1{[O=C(O)CCC(=O)[*:2]].[O=C([C@H](Cc1ccc(OS(=O)(=O)O)cc1)N[*:1])[*:2]].M.G.W.M.D.F.[am]}$$$$V2.0) | – | – | – | – | – | – | – | – | – | – | – | 7.0 ± 0.3 | 5.9 ± 0.9 | 4.5 ± 1.0 | especially high inhibitory effect | 0.0345 | 0.0102 | –
CSCC[C@H](NC(=O)[C@H](Cc1ccc(OS(=O)(=O)O)cc1)NC(=O)CCCC(=O)O)C(=O)NCC(=O)N[C@@H](Cc1c[nH]c2ccccc12)C(=O)N[C@@H](CCSC)C(=O)N[C@@H](CC(=O)O)C(=O)N[C@@H](Cc1ccccc1)C(N)=O [Peptide E, Glt--Tyr(SO3 H)--Met--Gly--Trp--Met--Asp--Phe--NH2] (HELM PEPTIDE1{[O=C(O)CCCC(=O)[*:2]].[O=C([C@H](Cc1ccc(OS(=O)(=O)O)cc1)N[*:1])[*:2]].M.G.W.M.D.F.[am]}$$$$V2.0) | – | – | – | – | – | – | – | – | – | – | – | 9.1 ± 0.9 | 7.9 ± 0.9 | 6.5 ± 0.7 | especially high inhibitory effect | 0.0879 | 0.004 | –
